According to ChEMBL document CHEMBL1201862, “PubChem BioAssay data set” (2004):
Activity calls are given as the source filed them.

What was measured:
Cytochrome P450 3A4 [1] = molecular target: T1, Cytochrome P450 3A4 (Homo sapiens, UniProt P08684); settings: Potency
[2] = molecular target: T2, Short transient receptor potential channel 4 (Mus musculus, UniProt Q9QUQ5); assay: mouse TRPC4 channel inhibitors, dose response, cell-based, HEK293 TRPC4/mu-opioid, Fluo-4 calcium (AID 434942); type: functional;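 also: potency of inhibitors blocking the TRPC4 calcium response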
T2 sequence (Q9QUQ5 whole entry): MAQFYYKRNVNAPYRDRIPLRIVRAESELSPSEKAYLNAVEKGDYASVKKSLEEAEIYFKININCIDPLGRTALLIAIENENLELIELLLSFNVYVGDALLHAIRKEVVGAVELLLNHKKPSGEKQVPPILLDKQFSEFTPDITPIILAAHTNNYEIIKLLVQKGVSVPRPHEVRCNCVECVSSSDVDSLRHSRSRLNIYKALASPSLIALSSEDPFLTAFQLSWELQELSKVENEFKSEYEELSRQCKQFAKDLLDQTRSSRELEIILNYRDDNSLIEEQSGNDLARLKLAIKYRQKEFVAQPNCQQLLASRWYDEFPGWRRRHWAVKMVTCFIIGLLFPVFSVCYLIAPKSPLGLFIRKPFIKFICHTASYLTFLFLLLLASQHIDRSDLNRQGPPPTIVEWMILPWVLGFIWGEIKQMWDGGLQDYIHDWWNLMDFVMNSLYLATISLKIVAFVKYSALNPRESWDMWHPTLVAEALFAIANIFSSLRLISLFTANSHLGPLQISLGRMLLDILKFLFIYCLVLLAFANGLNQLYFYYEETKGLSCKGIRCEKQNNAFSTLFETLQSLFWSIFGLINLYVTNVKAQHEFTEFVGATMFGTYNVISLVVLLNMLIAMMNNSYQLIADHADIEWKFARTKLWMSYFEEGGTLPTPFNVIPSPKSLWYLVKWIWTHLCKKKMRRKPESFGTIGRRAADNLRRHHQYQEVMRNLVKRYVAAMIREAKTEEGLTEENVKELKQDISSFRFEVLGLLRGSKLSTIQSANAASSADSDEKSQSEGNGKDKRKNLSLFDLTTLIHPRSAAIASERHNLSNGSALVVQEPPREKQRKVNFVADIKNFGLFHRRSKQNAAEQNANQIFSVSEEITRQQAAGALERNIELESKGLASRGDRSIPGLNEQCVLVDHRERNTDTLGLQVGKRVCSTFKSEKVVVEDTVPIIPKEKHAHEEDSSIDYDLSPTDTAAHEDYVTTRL

[3] = molecular target: Induced myeloid leukemia cell differentiation protein Mcl-1 (Homo sapiens, UniProt Q07820); type: functional
Streptococcus = assay: Group A Streptococcus viability loss, dose response, counter-screen for streptokinase expression inhibitor project, luminescence, BacTiterGlo (AID 1915); type: functional, organism-based;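 also: potency for reduction of bacterial viability or growth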
Streptokinase A = molecular target: T3, Streptokinase A (Streptococcus pyogenes serotype M1, UniProt P10520); assay: S. pyogenes streptokinase expression inhibitors, potency, dose response, plasminogen activation absorbance, OD405 (AID 1914); type: functional, Streptococcus pyogenes M1 GAS;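 also: secreted streptokinase activity via plasminogen activation per viability signal from cell pellet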
T3 sequence (P10520 whole entry): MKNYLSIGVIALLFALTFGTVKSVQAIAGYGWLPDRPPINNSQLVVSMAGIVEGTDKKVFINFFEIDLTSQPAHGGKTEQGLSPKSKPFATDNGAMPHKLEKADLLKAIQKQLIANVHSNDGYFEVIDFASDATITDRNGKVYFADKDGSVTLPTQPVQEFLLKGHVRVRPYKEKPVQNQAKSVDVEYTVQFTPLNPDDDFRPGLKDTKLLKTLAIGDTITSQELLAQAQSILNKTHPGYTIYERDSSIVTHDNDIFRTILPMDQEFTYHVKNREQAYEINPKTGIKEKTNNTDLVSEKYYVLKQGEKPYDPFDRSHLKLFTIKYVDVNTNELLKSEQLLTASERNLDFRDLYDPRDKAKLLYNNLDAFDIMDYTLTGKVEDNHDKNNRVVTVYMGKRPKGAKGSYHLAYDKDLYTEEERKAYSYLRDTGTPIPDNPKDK

[4] = molecular target: T4, Calpain-2 catalytic subunit (Sus scrofa, UniProt P43367); assay: pig calpain II inhibitor potency, dose response, biochemical, fluorogenic peptide substrate (AID 1420); type: functional
T4 sequence (P43367 whole entry): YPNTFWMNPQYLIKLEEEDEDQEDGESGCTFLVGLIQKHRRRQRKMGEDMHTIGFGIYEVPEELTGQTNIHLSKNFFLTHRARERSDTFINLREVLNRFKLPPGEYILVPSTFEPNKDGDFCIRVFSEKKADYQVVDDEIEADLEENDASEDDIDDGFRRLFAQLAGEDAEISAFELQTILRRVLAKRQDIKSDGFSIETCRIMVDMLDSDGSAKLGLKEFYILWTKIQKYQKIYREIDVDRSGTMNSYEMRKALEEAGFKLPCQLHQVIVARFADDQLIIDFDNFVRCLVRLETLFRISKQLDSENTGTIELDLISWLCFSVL

[5] = Luminescence Cell-Based Dose Retest to Confirm Inhibitors of Cancer Stem Cells. [Related pubchem assays (depositor defined):AID2717, AID2721]; type: functional; settings: Homo sapiens
[6] = system: Streptococcus sp. 'group A'; assay: growth inhibition of control SK(-) GAS strain, dose response, counter-screen for streptokinase expression inhibitor project, luminescence, kanamycin, BacTiterGlo, confirmation (AID 1900); type: functional, organism-based
Cytochrome P450 2C9 = Cytochrome P450 2C9 (Homo sapiens, UniProt P11712)
Cytochrome P450 3A4 [7] = molecular target: T1, Cytochrome P450 3A4
Cytochrome P450 2D6 = Cytochrome P450 2D6 (Homo sapiens, UniProt P10635);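 also: CYP2D6 member of a cytochrome P450 panel assay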
Cytochrome P450 2C19 = Cytochrome P450 2C19 (Homo sapiens, UniProt P33261); assay: Cytochrome panel assay with activity outcomes. Panel member name: p450-cyp2c19 Compounds with AC50 equal or less than 10 uM are considered active; type: functional; settings: read-out: AC50
Vero = assay: cells; type: functional, Chlorocebus sabaeus; settings: Chlorocebus sabaeus, Vero
[8] = HEp-2 cell cytotoxicity, dose response, cytotoxicity control for RSV inhibitor project, HTS (AID 2410); type: functional; settings: human respiratory syncytial virus
BJ [9] = assay: cytotoxicity toward BJ-TERT fibroblasts, dose response, cell-based, RAS-independent, luminescence (AID 1933); type: functional; settings: Homo sapiens
BJ [10] = assay: cytotoxicity toward Ras-transformed BJeLR fibroblasts, dose response, cell-based, alamar blue fluorescence, cherrypicked samples (AID 2631); type: functional; settings: Homo sapiens;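 also: confirmatory dose-response assay in RAS-dependent BJ fibroblasts engineered with TERT, LT and ST, with cytotoxicity read by fluorescence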
BJ [11] = assay: cytotoxicity toward BJ-TERT-LT-ST fibroblasts, dose response, cell-based, RAS-independent, luminescence (AID 1935); type: functional; settings: Homo sapiens;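 also: BJ fibroblasts immortalized with TERT plus LT and ST oncogenes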
[12] = cytotoxicity toward DRD oncogenic fibroblasts, dose response, cell-based, non-viral oncogenic, luminescence (AID 1934); type: functional; settings: Homo sapiens
[13] = molecular target: T5, Voltage-gated N-type calcium channel alpha-1B subunit/Amyloid beta A4 precursor protein-binding family A member 1 (Homo sapiens, UniProt Q00975+Q02410); type: protein assay
[14] = molecular target: T5, Voltage-gated N-type calcium channel alpha-1B subunit/Amyloid beta A4 precursor protein-binding family A member 1; type: protein assay; remark: listed apart in the source

Sequence of Cytochrome P450 2C9 (P11712 whole entry): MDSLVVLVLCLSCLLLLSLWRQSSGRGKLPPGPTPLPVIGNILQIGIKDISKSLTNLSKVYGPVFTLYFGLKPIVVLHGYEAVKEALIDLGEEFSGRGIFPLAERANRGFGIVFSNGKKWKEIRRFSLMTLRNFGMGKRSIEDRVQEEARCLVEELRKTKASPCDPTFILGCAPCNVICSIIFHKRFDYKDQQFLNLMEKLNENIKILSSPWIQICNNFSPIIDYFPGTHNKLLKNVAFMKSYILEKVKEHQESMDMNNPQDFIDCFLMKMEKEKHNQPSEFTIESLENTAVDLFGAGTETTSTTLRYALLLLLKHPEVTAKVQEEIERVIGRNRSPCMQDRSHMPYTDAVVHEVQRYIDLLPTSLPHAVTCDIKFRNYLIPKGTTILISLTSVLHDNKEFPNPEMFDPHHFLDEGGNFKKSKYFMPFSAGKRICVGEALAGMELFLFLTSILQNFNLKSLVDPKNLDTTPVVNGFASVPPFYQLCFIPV
T1 sequence (P08684 whole entry): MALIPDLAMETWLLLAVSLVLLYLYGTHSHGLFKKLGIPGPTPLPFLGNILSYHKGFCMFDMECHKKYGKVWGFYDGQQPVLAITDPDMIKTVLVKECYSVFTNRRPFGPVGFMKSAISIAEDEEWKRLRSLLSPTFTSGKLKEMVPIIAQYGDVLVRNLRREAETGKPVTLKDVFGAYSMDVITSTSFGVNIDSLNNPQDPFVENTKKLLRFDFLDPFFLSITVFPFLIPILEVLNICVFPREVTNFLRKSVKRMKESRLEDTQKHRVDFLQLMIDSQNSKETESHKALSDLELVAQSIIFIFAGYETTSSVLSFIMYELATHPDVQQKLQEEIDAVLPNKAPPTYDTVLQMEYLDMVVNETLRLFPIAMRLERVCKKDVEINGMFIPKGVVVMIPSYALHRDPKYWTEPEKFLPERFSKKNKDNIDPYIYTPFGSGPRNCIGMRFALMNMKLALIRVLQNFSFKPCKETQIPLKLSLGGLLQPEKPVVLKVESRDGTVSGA
Sequence of Cytochrome P450 2D6 (P10635 whole entry): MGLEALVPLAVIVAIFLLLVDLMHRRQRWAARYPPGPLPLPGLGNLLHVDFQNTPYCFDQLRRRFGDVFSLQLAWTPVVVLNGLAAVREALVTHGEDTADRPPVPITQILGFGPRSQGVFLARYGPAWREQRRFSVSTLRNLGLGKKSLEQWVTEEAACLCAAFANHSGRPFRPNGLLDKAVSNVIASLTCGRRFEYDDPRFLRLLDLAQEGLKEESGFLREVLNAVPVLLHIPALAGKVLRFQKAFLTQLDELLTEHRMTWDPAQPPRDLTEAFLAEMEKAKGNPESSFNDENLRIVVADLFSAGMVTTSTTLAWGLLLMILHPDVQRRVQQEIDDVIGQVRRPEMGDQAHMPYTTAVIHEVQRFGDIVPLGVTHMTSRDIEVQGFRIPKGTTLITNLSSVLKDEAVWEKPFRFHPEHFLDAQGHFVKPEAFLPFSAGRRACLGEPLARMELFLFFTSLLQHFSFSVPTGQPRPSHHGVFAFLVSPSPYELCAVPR
T5 sequence (Q00975 whole entry): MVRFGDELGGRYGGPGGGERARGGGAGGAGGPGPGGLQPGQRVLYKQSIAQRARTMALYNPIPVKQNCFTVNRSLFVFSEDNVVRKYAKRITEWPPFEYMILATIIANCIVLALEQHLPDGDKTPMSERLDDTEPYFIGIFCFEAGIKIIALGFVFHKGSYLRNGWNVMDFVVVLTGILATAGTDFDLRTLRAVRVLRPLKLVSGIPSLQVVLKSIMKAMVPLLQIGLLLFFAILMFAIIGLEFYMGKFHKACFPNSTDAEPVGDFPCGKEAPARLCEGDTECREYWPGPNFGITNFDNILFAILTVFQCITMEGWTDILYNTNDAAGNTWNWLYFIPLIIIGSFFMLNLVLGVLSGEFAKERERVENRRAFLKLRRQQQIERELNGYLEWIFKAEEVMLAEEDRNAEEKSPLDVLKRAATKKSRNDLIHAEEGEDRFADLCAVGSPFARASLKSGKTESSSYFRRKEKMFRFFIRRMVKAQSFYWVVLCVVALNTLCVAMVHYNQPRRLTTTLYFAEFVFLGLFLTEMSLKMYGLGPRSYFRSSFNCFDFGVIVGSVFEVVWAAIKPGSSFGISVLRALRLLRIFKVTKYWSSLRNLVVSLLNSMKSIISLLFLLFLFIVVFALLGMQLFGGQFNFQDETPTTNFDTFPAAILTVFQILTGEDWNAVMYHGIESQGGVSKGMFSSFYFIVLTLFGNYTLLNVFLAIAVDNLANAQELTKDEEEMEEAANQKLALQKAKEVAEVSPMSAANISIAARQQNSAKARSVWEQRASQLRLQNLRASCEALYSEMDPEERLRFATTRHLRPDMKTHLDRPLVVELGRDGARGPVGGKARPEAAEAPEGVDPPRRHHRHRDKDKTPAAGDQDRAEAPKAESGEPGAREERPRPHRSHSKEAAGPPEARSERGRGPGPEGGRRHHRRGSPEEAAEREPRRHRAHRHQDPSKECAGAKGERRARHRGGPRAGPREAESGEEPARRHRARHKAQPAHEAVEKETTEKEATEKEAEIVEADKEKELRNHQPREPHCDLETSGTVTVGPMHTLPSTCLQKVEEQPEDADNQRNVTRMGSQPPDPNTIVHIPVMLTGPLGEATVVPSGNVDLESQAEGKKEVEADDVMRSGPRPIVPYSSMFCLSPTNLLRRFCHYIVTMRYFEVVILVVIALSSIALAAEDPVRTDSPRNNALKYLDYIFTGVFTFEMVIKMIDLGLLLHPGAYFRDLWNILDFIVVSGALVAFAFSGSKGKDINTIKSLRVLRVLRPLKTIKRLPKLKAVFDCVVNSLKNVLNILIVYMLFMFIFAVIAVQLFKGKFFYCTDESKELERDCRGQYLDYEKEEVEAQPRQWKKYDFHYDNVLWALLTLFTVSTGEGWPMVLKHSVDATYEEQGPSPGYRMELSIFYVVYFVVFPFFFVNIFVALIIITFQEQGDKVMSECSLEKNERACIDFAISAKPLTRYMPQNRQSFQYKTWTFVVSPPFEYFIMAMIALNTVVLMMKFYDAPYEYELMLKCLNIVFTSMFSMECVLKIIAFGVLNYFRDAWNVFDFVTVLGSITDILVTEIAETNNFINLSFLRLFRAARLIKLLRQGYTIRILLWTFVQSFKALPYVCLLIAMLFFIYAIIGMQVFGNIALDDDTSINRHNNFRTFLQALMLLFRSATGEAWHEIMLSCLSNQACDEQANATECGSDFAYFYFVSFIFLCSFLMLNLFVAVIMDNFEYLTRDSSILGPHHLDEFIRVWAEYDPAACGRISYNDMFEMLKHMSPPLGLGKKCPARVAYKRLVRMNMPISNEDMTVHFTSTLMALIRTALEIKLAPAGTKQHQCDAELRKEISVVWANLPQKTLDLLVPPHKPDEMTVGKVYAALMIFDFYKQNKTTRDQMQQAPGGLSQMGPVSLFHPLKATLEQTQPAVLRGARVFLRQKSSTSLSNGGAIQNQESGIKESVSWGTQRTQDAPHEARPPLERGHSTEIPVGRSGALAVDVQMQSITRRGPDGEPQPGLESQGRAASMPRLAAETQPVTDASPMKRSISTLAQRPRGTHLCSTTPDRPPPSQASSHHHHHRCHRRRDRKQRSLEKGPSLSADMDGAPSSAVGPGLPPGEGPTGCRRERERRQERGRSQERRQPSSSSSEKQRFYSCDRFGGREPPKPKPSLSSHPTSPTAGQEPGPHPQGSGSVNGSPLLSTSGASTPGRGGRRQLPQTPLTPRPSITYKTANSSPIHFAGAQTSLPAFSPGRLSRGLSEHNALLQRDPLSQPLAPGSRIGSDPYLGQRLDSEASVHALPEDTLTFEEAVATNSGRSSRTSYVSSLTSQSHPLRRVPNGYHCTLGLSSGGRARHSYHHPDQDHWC
T5 sequence (Q02410 whole entry): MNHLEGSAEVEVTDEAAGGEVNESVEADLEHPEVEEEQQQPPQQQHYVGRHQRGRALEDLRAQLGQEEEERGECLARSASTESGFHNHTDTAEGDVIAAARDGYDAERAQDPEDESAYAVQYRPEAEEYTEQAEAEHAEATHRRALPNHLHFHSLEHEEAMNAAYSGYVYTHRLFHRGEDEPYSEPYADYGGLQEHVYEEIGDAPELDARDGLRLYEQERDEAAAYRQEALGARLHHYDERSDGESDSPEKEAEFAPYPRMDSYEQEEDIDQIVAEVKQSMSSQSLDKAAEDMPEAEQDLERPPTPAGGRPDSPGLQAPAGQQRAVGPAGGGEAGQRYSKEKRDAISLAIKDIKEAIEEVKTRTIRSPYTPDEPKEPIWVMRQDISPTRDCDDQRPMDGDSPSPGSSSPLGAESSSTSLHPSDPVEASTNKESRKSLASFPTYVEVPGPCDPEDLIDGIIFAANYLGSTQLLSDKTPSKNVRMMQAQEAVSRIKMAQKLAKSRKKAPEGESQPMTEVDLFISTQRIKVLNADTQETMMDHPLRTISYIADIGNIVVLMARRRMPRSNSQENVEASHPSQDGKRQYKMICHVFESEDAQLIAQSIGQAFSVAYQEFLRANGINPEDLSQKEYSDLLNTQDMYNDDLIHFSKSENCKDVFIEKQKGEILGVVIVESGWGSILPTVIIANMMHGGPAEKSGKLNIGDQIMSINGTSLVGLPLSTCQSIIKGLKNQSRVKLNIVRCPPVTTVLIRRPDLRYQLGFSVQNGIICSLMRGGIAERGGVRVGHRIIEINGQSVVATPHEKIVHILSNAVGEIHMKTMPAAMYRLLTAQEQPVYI
Sequence of Induced myeloid leukemia cell differentiation protein Mcl-1 (Q07820 whole entry): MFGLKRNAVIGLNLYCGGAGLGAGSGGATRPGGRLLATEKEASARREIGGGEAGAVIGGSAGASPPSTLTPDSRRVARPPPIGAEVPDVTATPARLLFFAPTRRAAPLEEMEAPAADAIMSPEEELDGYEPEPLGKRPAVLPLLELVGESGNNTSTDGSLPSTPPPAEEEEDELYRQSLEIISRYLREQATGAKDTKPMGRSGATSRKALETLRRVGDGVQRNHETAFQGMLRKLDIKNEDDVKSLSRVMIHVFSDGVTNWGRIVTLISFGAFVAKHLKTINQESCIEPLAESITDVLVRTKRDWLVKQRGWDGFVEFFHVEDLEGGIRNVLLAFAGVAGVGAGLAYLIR

For `CCC1=C2CC[C@H]3C(=O)NC(=O)[C@H]3[C@H]2[C@@]2(Cc3ccccc3)/C(=N/CC(=O)OC)OC(=O)N2C1=O`, which AC50 (Cytochrome P450 3A4 [1]) is on record?
The AC50 was 15.8 µM (inconclusive).

With `C=CCn1cnc2scc(-c3ccc(CC)cc3)c2c1=O` as the compound, how does the EC50 [2] read?
Its EC50 is 5.96 µM (active).

For `Oc1c(Cl)cc(Cl)cc1/C=C/c1ccc2cccc(O)c2n1`, which IC50 [3] is on record?
Its IC50 is 6.97 µM (not active).

For `Cc1ccc(NC2=NCC(Cc3ccc(Br)cc3)S2)cc1` (centres undefined), which EC50 (Streptococcus) is on record?
The EC50 was 10.4 µM (active).

What about the EC50 (Streptokinase A) of the same compound?
The EC50 was > 150 µM (not active).

And the IC50 [4]?
The IC50 was 5.89 µM (not active).

What about the AC50 [5] of the same compound?
The AC50 was 6.43 µM (active).

What about the EC50 [6] of the same compound?
Its EC50 is 6.42 µM (active).

For `CCOC(=O)c1sc(=S)n(-c2cccc(C(F)(F)F)c2)c1SC`, which AC50 (Cytochrome P450 2C9) is on record?
Its AC50 is 1.58 µM (inconclusive).

What about the AC50 (Cytochrome P450 3A4 [7]) of the same compound?
The AC50 was “inconclusive”.

Which EC50 [2] does the source give for `Cn1cc(CNCC2CCCO2)c(-c2ccc(Oc3ccccc3)cc2)n1` (centres undefined) here?
Its EC50 is 3.35 µM (active).

What does the source list for `O=C(c1csnn1)N1CCC2(CC1)CN(C(c1ccccc1)c1ccccc1)C2`?
AC50 (Cytochrome P450 2D6): 12.6 µM (inconclusive); AC50 (Cytochrome P450 2C9): 15.8 µM (inconclusive); AC50 (Cytochrome P450 3A4 [7]): inconclusive; AC50 (Cytochrome P450 2C19): 0.00631 µM (inconclusive)

With `O=C(CC1C(=O)NCCN1C(=O)Nc1ccc(C(F)(F)F)cc1)Nc1ccc(F)cc1` (centres undefined) as the compound, how does the CC50 (Vero) read?
Its CC50 is > 25 µM (active).

For `CCOC(=O)c1c(N)sc(C(O)(C(F)(F)F)C(F)(F)F)c1-c1ccc(Cl)cc1`, which EC50 (Streptococcus) is on record?
Its EC50 is 10.1 µM (active).

What about the EC50 (Streptokinase A) of the same compound?
Its EC50 is 6.86 µM (active).

What about the CC50 [8] of the same compound?
The CC50 was 11.4 µM (active).

And the IC50 [4]?
Its IC50 is 13.3 µM (not active).

What about the EC50 [6] of the same compound?
The EC50 was 1.96 µM (active).

Which AC50 (Cytochrome P450 2D6) does the source give for `COc1ccc(C(=O)N2CCC3(CC2)CCN(C(c2ccccc2)c2ccccc2)CC3)cc1` here?
Its AC50 is 12.6 µM (inconclusive).

And the AC50 (Cytochrome P450 2C9)?
The AC50 was 39.8 µM (inconclusive).

And the AC50 (Cytochrome P450 3A4 [7])?
The AC50 was “inconclusive”.

For `COC1CC(C)C(OC)c2cc(O)cc(c2O)NC(=O)C(C)=CC=CC(C)C(OC(N)=O)C(C)=CC(C)C1OC` (centres undefined), which CC50 (Vero) is on record?
The CC50 was 12.6 µM (active).

For `COc1cc([C@@H]2c3cc4c(cc3[C@@H](NC3CCN(Cc5ccccc5)CC3)[C@H]3COC(=O)[C@H]23)OCO4)cc(OC)c1O`, which EC50 (BJ [9]) is on record?
Its EC50 is 1.33 µM (active).

And the EC50 (BJ [10])?
Its EC50 is 0.554 µM (active).

And the EC50 (BJ [11])?
Its EC50 is 0.297 µM (active).

What about the EC50 [12] of the same compound?
Its EC50 is 2.38 µM (active).

Which IC50 [3] does the source give for `Oc1c(Br)cc(/C=N/c2ccc3[nH]c(-c4ccccc4)nc3c2)c(O)c1Br` here?
The IC50 was 1.49 µM (active).

For `Cc1cccn2c(=O)c(/C=N/O)c(Nc3ccccc3F)nc12`, which IC50 [13] is on record?
The IC50 was > 50 µM (inactive).

What about the IC50 [14] of the same compound?
Its IC50 is 11.4 µM (active).

For `CCCCNC(=O)C(c1ccc(OCC(=O)OC)c(C(=O)OC)c1)N(CCOC)C(=O)CCCCCN1C(=O)NC(c2ccc(-c3ccccc3)cc2)C(C(=O)OCc2ccccc2)=C1C` (centres undefined), which AC50 (Cytochrome P450 3A4 [1]) is on record?
Its AC50 is 3.16 µM (inconclusive).

Which AC50 (Cytochrome P450 3A4 [1]) does the source give for `COc1c(CC(=O)c2cc3c(cc2O)OC(C)(C)C(O)C3)ccc2c1C=CC(C)(C)O2` (centres undefined) [DIHYDROMUNDULETONE] here?
Its AC50 is 25.1 µM (inconclusive).
